Read-outs that look alike come from different tables or passages of the source.
Assays:
[1] = test system: thyroid hormone receptor (TR); assay: Classification of TR actives across characterization assays (TR-Ag / RXR-Ag; TR model binary); parameters: key to Categorization Code: FP, false positive; conditions: for Categorization Code: TR agonist characterization
In short: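 Pharmaceuticals excluded; actives called from GH3-TRE qHTS (agonist, antagonist, viability) on 8,305 chemicals. Confirmation of 84 selected chemicals used GH3-TRE-Ag, mammalian one-hybrid TRβ and RXRα UAS-bla HEK 293T specificity screens, parental HEK293T viability, and two TR:coactivator recruitment assays.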

in vitro [2] = conditions: rat, gh3-tre-luc cells, AC50 (uM) modified / 1000
[3] = Global cytotoxicity: eighteen Tox21 cell viability assays; format: cell-based; conditions: median over 18 Tox21 cell viability assays (Judson et al. 2016, invitrodb_v2); read-out: Global cytotoxicity AC50 median
[4] = test system: thyroid hormone receptor (endogenous TRα and TRβ); assay: cells; parameters: species or system GH3-TRE-Luc (rat pituitary); GH3-TRE-Luc luciferase reporter transactivation, agonist mode, qHTS; RXR ligands can also activate indirectly; conditions: 24 h, read-out: TR_LUC_GH3_Agonist_AC50 (uM)
[5] = test system: thyroid hormone receptor (endogenous TRα and TRβ); assay: GH3-TRE-Ag-Followup confirmation (TOX21_TR_LUC_GH3_Agonist_Followup, aeid 2226); format: cell-based, rat; conditions: for AC50: read-out: GH3-TRE-Ag-Followup AC50; for GH3-TRE-Ag-Followup hitc: hit call from tcpl
in vitro [6] = conditions: rat
[7] = test system: thyroid hormone receptor (endogenous TRα and TRβ); assay: cells; parameters: species or system GH3-TRE-Luc (rat pituitary); GH3-TRE-Luc luciferase reporter, antagonist mode against 1 nM T3, loss of signal, qHTS; conditions: 24 h, antagonist mode, 1 nM T3, read-out: AC50 (uM) modified / 1000
in vitro [8] = assay: in vitro; parameters: species or system GH3-TRE-Luc (rat pituitary); CellTiter-Fluor viability run in parallel with antagonist mode (1 nM T3), loss of viability; conditions: rat, gh3-tre-luc cells, 1 nM T3 present
[9] = target: T1, TRα ligand-binding domain (Homo sapiens, UniProt P10827); assay: TRa-coa LanthaScreen TR-FRET coactivator (SRC-2 peptide) recruitment, agonist (TOX21_TRA_COA_Agonist_Followup_ratio, aeid 2230); format: biochemical; conditions: for AC50 / TRa-coa hitc: agonist; for AC50: read-out: TRa-coa AC50; for TRa-coa hitc: hit call from tcpl; for Emax: read-out: EMax (% of Control) tra-coa-agonist-followup-1
T1 construct: the receptor LBDs expressed as glutathione S-transferase (GST) fusion proteins; purchased

GH3-TRE-Luc cell line [10] = assay: GH3-TRE-Via cell viability, CellTiter-Fluor (TOX21_TR_LUC_GH3_Antagonist_viability, aeid 805); conditions: for AC50: Rattus norvegicus, read-out: TR_LUC_GH3_Antagonist_viability AC50 (uM)
[11] = test system: Tox21 cell viability assays (different cell types); assay: Global cytotoxicity: eighteen Tox21 cell viability assays; format: cell-based
[12] = target: T2, human TRβ ligand-binding domain (Homo sapiens, UniProt P10828); assay: TRb-coa LanthaScreen TR-FRET coactivator (SRC-2 peptide) recruitment, agonist (TOX21_TRB_COA_Agonist_Followup_ratio, aeid 2244); format: biochemical; parameters: host or cells: GeneBLAzer UAS-bla HEK 293T; conditions: for AC50 / TRb-coa hitc: agonist; for AC50: read-out: TRb-coa AC50; for TRb-coa hitc: hit call from tcpl; for Emax: read-out: EMax (% of Control) trb-coa-agonist-followup-1
T2 sequence (P10828 217-461 limits assumed): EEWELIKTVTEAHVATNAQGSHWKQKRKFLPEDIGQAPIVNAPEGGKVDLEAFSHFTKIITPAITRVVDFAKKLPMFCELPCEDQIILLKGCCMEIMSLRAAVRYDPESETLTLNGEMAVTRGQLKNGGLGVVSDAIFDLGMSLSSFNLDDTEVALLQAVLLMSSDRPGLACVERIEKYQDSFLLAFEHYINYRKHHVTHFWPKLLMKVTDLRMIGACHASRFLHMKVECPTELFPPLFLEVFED

human RXRα = target: T3, human RXRα (Homo sapiens, UniProt P19793); assay: RXRa-bla-Ag mammalian one-hybrid beta-lactamase assay (TOX21_TR_RXR_BLA_Agonist_Followup_ratio, aeid 2253); format: cell-based; conditions: for tr-followup-rxr-bla-agonist-1 hitc: hit call from tcpl; for Emax: read-out: EMax (% of Control) tr-followup-rxr-bla-agonist-1; for AC50: read-out: tr-followup-rxr-bla-agonist-1 AC50
T3 construct: host or cells: GeneBLAzer UAS-bla HEK 293T
T3 sequence (P19793 227-458 limits assumed): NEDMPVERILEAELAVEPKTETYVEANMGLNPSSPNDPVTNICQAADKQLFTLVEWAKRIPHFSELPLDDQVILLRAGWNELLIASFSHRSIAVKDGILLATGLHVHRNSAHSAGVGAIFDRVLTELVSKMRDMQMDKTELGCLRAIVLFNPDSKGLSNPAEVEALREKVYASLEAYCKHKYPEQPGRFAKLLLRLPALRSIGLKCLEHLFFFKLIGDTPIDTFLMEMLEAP

[13] = target: T2, human TRβ ligand-binding domain; assay: TRb-bla agonist mammalian one-hybrid beta-lactamase assay (TOX21_TRB_BLA_Agonist_Followup_ratio, aeid 2236); format: cell-based; parameters: host or cells: GeneBLAzer UAS-bla HEK 293T; conditions: for AC50 / TRb-bla hitc: agonist; for AC50: read-out: TRb-bla AC50; for TRb-bla hitc: hit call from tcpl; for Emax: read-out: EMax (% of Control) trb-bla-agonist-followup-1
[14] = test system: thyroid hormone receptor (endogenous TRα and TRβ); assay: GH3-TRE-Ag primary qHTS, luciferase reporter, agonist mode (TOX21_TR_LUC_GH3_Agonist, aeid 803); format: cell-based, rat; conditions: for GH3-TRE-Ag AC50 hitc: hit call from tcpl
GH3-TRE-Luc cell line [15] = conditions: rat, 24 h

T1 sequence (P10827 163-410 isoform P10827-2 limits assumed, other chains not shown): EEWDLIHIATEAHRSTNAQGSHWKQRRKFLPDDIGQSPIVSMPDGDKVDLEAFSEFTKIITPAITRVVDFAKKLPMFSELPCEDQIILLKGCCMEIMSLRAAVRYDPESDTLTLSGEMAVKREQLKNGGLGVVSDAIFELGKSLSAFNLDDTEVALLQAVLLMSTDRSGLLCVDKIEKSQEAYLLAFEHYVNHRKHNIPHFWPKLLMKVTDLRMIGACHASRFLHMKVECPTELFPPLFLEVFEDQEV

N[C@@H](Cc1ccc(Oc2cc(I)c(O)c(I)c2)c(I)c1)C(=O)O [3,3ʹ,5ʹ-Triiodo-L-thyronine]
Classification ([1]; TR-Ag = TR agonist, RXR-Ag = RXR agonist): TR-Ag | CC50 at 24 h (in vitro [2]): > 50 µM | AC50 [3]: > 92 µM | AC50 [4]: 0.218 µM | AC50 ([5]; confirmation, agonist mode): 0.537 µM | AC50 (in vitro [6]): > 92 µM

CCS(=O)(=O)CCSP(=O)(OC)OC [Demeton-S-methylsulphon]
AC50 ([7]; Tox21_110001=Tox21_301575): > 90 µM | CC50 at 24 h (in vitro [8]; AC50 (uM) modified / 1000, Tox21_110001=Tox21_301575, viability): > 90 µM | AC50 [4]: > 90 µM

CCOP(=S)(OCC)SCCl [Chlormephos]
AC50 ([7]; Tox21_110001=Tox21_300825): > 90 µM | CC50 at 24 h (in vitro [8]; AC50 (uM) modified / 1000, Tox21_110001=Tox21_300825, viability): > 90 µM | AC50 [4]: > 90 µM

CCOP(=S)(Oc1ccc([N+](=O)[O-])cc1)c1ccccc1 (stereo not drawn) [EPN]
AC50 ([7]; Tox21_110001=Tox21_300424): > 90 µM | CC50 at 24 h (in vitro [8]; AC50 (uM) modified / 1000, Tox21_110001=Tox21_300424, viability): > 90 µM | AC50 [4]: > 90 µM

CCOP(=S)(OCC)SCSc1cc(Cl)ccc1Cl [Phenkapton]
AC50 ([7]; Tox21_110001=Tox21_301741): > 90 µM | CC50 at 24 h (in vitro [8]; AC50 (uM) modified / 1000, Tox21_110001=Tox21_301741, viability): > 90 µM | AC50 [4]: > 90 µM

CNC(=O)ON=C(CSC)C(C)(C)C [Thiofanox]
Categorization Code [1]: FP | AC50 [9]: > 92 µM | TRa-coa hitc [9]: 0 | Emax [9]: -0.2% | AC50 (GH3-TRE-Luc cell line [10]): > 92 µM | TR_LUC_GH3_Antagonist_viability hitc (GH3-TRE-Luc cell line [10]; hit call from tcpl): 0 | GLOBAL CYTOTOXICITY cytotox.number_Active ([11]; # active of 18 total Tox21 viability assays): 0 | GLOBAL CYTOTOXICITY cytotox.median ([11]; median over Tox21 viability assays): >92 | AC50 [12]: > 92 µM | TRb-coa hitc [12]: 0 | Emax [12]: -0.165% | AC50 [4]: 21 µM | EMax (% of Control) gh3-tre-agonist-followup-1_agonist [5]: 9.5 % of Control | GH3-TRE-Ag-Followup hitc [5]: 0 | AC50 [5]: > 92 µM | tr-followup-rxr-bla-agonist-1 hitc (human RXRα): 0 | Emax (human RXRα): 3% | AC50 (human RXRα): > 92 µM | AC50 [13]: > 92 µM | TRb-bla hitc [13]: 0 | Emax [13]: 31.7% | EMax (% of Control) gh3-tre-agonist [14]: 22.7 % of Control | GH3-TRE-Ag AC50 hitc [14]: 1

C1=CCC=C1 [1,3-Cyclopentadiene]
AC50 ([7]; Tox21_110001=Tox21_302134): > 90 µM | CC50 at 24 h (in vitro [8]; AC50 (uM) modified / 1000, Tox21_110001=Tox21_302134, viability): > 90 µM | AC50 [4]: > 90 µM

CCOP(=O)(CN(CCO)CCO)OCC [Diethyl((diethanolamino)methyl)phosphonate]
AC50 ([7]; Tox21_110001=Tox21_301894): > 90 µM | CC50 at 24 h (in vitro [8]; AC50 (uM) modified / 1000, Tox21_110001=Tox21_301894, viability): > 90 µM | AC50 [4]: > 90 µM

c1csc(-c2ccc(-c3cccs3)s2)c1 [alpha-Terthiophene]
Categorization Code [1]: FP | AC50 [9]: > 92 µM | TRa-coa hitc [9]: 0 | Emax [9]: -0.547% | AC50 (GH3-TRE-Luc cell line [10]): > 92 µM | GLOBAL CYTOTOXICITY cytotox.median [11]: >92 | GLOBAL CYTOTOXICITY cytotox.number_Active [11]: 0 | TR_LUC_GH3_Antagonist_viability hitc (GH3-TRE-Luc cell line [15]): 0 | AC50 [12]: > 92 µM | TRb-coa hitc [12]: 0 | Emax [12]: -0.0945% | AC50 [4]: 80.3 µM | EMax (% of Control) gh3-tre-agonist-followup-1_agonist [5]: 7.5 % of Control | GH3-TRE-Ag-Followup hitc [5]: 0 | AC50 [5]: > 92 µM | tr-followup-rxr-bla-agonist-1 hitc (human RXRα): 1 | Emax (human RXRα): 65.3% | AC50 (human RXRα): 0.728 µM | AC50 [13]: > 92 µM | TRb-bla hitc [13]: 0 | Emax [13]: 25.8% | EMax (% of Control) gh3-tre-agonist [14]: 20.8 % of Control | GH3-TRE-Ag AC50 hitc [14]: 1

[CH3][Sn]([CH3])([Cl])[Cl] [Dimethyltin dichloride]
CC50 at 24 h (in vitro [8]; AC50 (uM) modified / 1000, Tox21_110001=Tox21_201249, viability): 79.3 µM

C[C@]12CC[C@@H]3c4ccc(OC(=O)N(CCCl)CCCl)cc4CC[C@H]3[C@@H]1CC[C@@H]2OP(=O)(O)O [Estramustine phosphate sodium]
AC50 ([7]; Tox21_110001=Tox21_113375): > 50 µM

ClCc1ccccc1 [Benzyl chloride]
AC50 ([7]; Tox21_110001=Tox21_200266): > 90 µM | CC50 at 24 h (in vitro [8]; AC50 (uM) modified / 1000, Tox21_110001=Tox21_200266, viability): > 90 µM | AC50 [4]: > 90 µM

CCOP(=O)(OCC)Oc1nc(Cl)c(Cl)cc1Cl [Chlorpyrifos oxon]
CC50 at 24 h (in vitro [8]; AC50 (uM) modified / 1000, Tox21_110001=Tox21_301063, viability): 60.1 µM | AC50 [4]: > 90 µM

[CH3][Sn]([Cl])([Cl])[Cl] [Trichloromethylstannane]
CC50 at 24 h (in vitro [8]; AC50 (uM) modified / 1000, Tox21_110001=Tox21_202322, viability): > 90 µM

Reference: publication PMC6792352, “Limited Chemical Structural Diversity Found to Modulate Thyroid Hormone Receptor in the Tox21 Chemical Library” (Environmental Health Perspectives, 2019)
